In PubChem BioAssay AID434997 (The Scripps Research Institute Molecular Screening Center, 2010):

Biological target: NADPH oxidase 1 (Homo sapiens) (UniProt Q9Y5S8)
Assay: NOX1 inhibitors, concentration-response, dose response, cell-based, luminescence, cherry picks 2 (AID 434997)
Conditions: NOX1-expressing cells, ROS luminescence

Chain of NADPH oxidase 1 (Homo sapiens) (Q9Y5S8 whole entry, looked up): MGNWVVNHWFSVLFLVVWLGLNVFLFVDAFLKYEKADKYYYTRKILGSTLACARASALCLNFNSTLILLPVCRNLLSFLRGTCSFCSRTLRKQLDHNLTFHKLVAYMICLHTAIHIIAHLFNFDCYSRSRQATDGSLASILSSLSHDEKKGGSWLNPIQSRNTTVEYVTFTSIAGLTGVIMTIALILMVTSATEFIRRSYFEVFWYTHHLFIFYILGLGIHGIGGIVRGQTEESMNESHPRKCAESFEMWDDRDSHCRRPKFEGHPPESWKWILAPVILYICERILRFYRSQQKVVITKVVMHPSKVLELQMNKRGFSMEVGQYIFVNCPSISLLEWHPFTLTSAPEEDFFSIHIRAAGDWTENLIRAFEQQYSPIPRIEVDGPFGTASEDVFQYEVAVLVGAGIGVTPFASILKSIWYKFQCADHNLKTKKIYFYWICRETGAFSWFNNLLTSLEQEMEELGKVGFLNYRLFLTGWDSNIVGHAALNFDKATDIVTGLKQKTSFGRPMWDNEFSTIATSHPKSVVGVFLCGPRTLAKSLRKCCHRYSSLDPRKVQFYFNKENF

## FC(F)(F)c1ccc2c(c1)Nc1ccccc1S2
  IC50: 320 nM
